In PubChem BioAssay AID1963960 (Molecular Pharmacology Branch, DTP, NCI, 2024):
Values joined by “and” are separate entries in the source; they are usually repeats but may differ in a detail not shown here. Equal values may be shown once.

Test system: MDA-MB-468 spheroids with HUVEC/MSC, viability
Assay: Anticancer human tumor MDA-MB-468 cell line growth inhibition [PI3K];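 also: spheroids exposed to agents for seven days before readout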
Conditions: for viability, T/C: stronger effect = lower value; active = viability on the fitted dose curve at most 10% of control; inactive = the rest
Text: Combinatorial screen of targeted agents with the PI3K inhibitors inavolisib, alpelisib, duvelisib, and copanlisib in multi-cell type tumor spheroids
A high-throughput screen of multi-cell type tumor spheroids was designed to identify active combinations of targeted small molecules and PI3K pathway inhibitors. Complex spheroids include a stromal component modeled by human endothelial cells (HUVEC) and fibroblasts modeled by human mesenchymal stem cells (MSCs). The concentration ranges selected for each drug and investigational agent were based upon clinically achievable concentrations if the clinical Cmax of the agent was known.
Compounds. The drugs and investigational agents: inavolisib (NSC800729), alpelisib (NSC765974), duvelisib (NSC772469), copanlisib (NSC816437), ipatasertib (NSC767898), afuresertib (NSC778305), talazoparib (NSC767125), sapanisertib (NSC764658), selumetinib (NSC741078), tovorafenib (DAY101, NSC766906), vemurafenib (NSC761431), ravoxertinib (NSC781343), sotorasib (NSC818433), MRTX1133 (NSC 836407), abemaciclib (NSC 768073), palbociclib (NSC758247), venetoclax (NSC 766270), SY5609 (NSC837396), enzalutamide (NSC755605), and darolutamide (NSC825331), were obtained from the National Cancer Institute (NCI) Developmental Therapeutics Program Chemical Repository. The FDA-approved anticancer drug set is available from the NCI Developmental Therapeutics Program. […] The stock solutions were prepared in dimethyl sulfoxide (DMSO, Sigma-Aldrich, St. Louis, MO, cat. D2650) at 800-fold the tested concentration and stored at -70 degrees C prior to their use. All drugs and investigational agents were tested over a range starting from a high concentration at or near the clinical Cmax and decreasing in half-log increments. If the clinical Cmax for an agent had not been determined, the highest concentration tested was 10 microM.
Cell Culture. All cells were maintained in an incubator at 37 degrees C and 5% CO2 with 95% humidity. The PDC lines were cultured according to standard operating procedures established by the NCI PDMR (https://pdmr.cancer.gov/sops/default.htm). All PDCs were thawed and cultured in Matrigel-coated flasks prepared with a working solution of 1X Ham's F-12 nutrient mix, without supplementation (Invitrogen, Waltham, MA, cat. 11765054), 100 U/mL penicillin-streptomycin (Invitrogen, cat. 15140122), and 2.5% Matrigel (Corning Inc., Corning, NY, cat. 354248) for the first three passages. The 354836-022-R-J1-PDC, 475296-252-R-J1-PDC, and 997726-040-R-J2-PDC lines were cultured in 6A media, which includes advanced DMEM/F-12 (Thermo Fisher Scientific, cat. 12634028), 10 mM HEPES (Thermo Fisher Scientific, cat. 15630080), 1X GlutaMAX supplement (Thermo Fisher Scientific, cat. 35050061), 0.1 mg/mL primocin (InvivoGen, San Diego, CA, cat. ant-pm-2), 10% defined fetal bovine serum, heat inactivated (HyClone Laboratories Inc., Logan, UT, cat. SH30070.03HI), 50% L-WRN conditioned media (ATCC, cat. CRL-3276), 1.25 mM N-Acetyl-L-cysteine (Sigma-Aldrich, cat. A9165), 10 mM nicotinamide (Sigma-Aldrich, cat. N0636), 1X B-27 supplement (Thermo Fisher Scientific, cat. 17504044), 1X N-2 supplement (Thermo Fisher Scientific, cat. 17502048), and 10 microM Y-27632 dihydrochloride (Tocris Bioscience, Bristol, United Kingdom, cat. 1254). The 624824-186-R-J2-PDC line was cultured in 6C/Colon 1B media, which includes all 6A media components plus 50 ng/mL human EGF recombinant protein (Thermo Fisher Scientific, cat. PHG0311). […]

[1] = curve of first compound, second compound 0.00316 µM
[2] = curve of first compound, second compound 0.01 µM
[3] = curve of first compound, second compound 0.0316 µM
[4] = curve of first compound, second compound 0.1 µM
[5] = curve of first compound, second compound 0.316 µM
[6] = curve of first compound, second compound 1 µM
[7] = second compound 0.00316 µM, first compound 0.0316 µM
[8] = second compound 0.00316 µM, first compound 0.1 µM
[9] = second compound 0.00316 µM, first compound 0.316 µM
[10] = second compound 0.00316 µM, first compound 1 µM
[11] = second compound 0.00316 µM, first compound 3.16 µM
[12] = second compound 0.00316 µM, first compound 10 µM
[13] = second compound 0.01 µM, first compound 0.0316 µM
[14] = second compound 0.01 µM, first compound 0.1 µM
[15] = second compound 0.01 µM, first compound 0.316 µM
[16] = second compound 0.01 µM, first compound 1 µM
[17] = second compound 0.01 µM, first compound 3.16 µM
[18] = second compound 0.01 µM, first compound 10 µM
[19] = second compound 0.0316 µM, first compound 0.0316 µM
[20] = second compound 0.0316 µM, first compound 0.1 µM
[21] = second compound 0.0316 µM, first compound 0.316 µM
[22] = second compound 0.0316 µM, first compound 1 µM
[23] = second compound 0.0316 µM, first compound 3.16 µM
[24] = second compound 0.0316 µM, first compound 10 µM
[25] = second compound 0.1 µM, first compound 0.0316 µM
[26] = second compound 0.1 µM, first compound 0.1 µM
[27] = second compound 0.1 µM, first compound 0.316 µM
[28] = second compound 0.1 µM, first compound 1 µM
[29] = second compound 0.1 µM, first compound 3.16 µM
[30] = second compound 0.1 µM, first compound 10 µM
[31] = second compound 0.316 µM, first compound 0.0316 µM
[32] = second compound 0.316 µM, first compound 0.1 µM
[33] = second compound 0.316 µM, first compound 0.316 µM
[34] = second compound 0.316 µM, first compound 1 µM
[35] = second compound 0.316 µM, first compound 3.16 µM
[36] = second compound 0.316 µM, first compound 10 µM
[37] = second compound 1 µM, first compound 0.0316 µM
[38] = second compound 1 µM, first compound 0.1 µM
[39] = second compound 1 µM, first compound 0.316 µM
[40] = second compound 1 µM, first compound 1 µM
[41] = second compound 1 µM, first compound 3.16 µM
[42] = second compound 1 µM, first compound 10 µM

CCCS(=O)(=O)Nc1ccc(F)c(C(=O)c2c[nH]c3ncc(-c4ccc(Cl)cc4)cc23)c1F + CC(Nc1ccc2c(c1)OCCn1cc(N3C(=O)OCC3C(F)F)nc1-2)C(N)=O
5.16 µM: IC50 [2]
3.72 µM: IC50 [6]
5.33 µM: IC50 [1]
inactive: viability, T/C [7] 89.1% | viability, T/C [8] 114% | viability, T/C [9] 100% | viability, T/C [10] 94.4% | viability, T/C [11] 78.9% | viability, T/C [12] 15.6% | viability, T/C [13] 101% | viability, T/C [14] 90% | viability, T/C [15] 90.6% | viability, T/C [16] 104% | viability, T/C [17] 74.8% | viability, T/C [18] 16.4% | viability, T/C [19] 106% | viability, T/C [20] 98.7% | viability, T/C [21] 86.8% | viability, T/C [22] 103% | viability, T/C [23] 74.8% | viability, T/C [24] 14.2% | viability, T/C [25] 95.4% | viability, T/C [26] 90.6% | viability, T/C [27] 85.6% | viability, T/C [28] 94.5% | viability, T/C [29] 66.2% | viability, T/C [30] 14.5% | viability, T/C [31] 95.6% | viability, T/C [32] 89.1% | viability, T/C [33] 79.2% | viability, T/C [34] 94.1% | viability, T/C [35] 55% | viability, T/C [36] 12.1% | viability, T/C [37] 85.3% | viability, T/C [38] 88.3% | viability, T/C [39] 78.7% | viability, T/C [40] 67.2% | viability, T/C [41] 61.4% | viability, T/C [42] 11%
3.62 µM: IC50 [5]
5.07 µM: IC50 [3]
4.53 µM: IC50 [4]

CC(Cn1ccc(-c2ccc(C#N)c(Cl)c2)n1)NC(=O)c1cc(C(C)O)[nH]n1 (stereo not drawn)
inactive: viability, T/C (compound 0.0316 µM) 98% [middle of 4 runs] | viability, T/C (compound 0.1 µM) 87.6% [middle of 4 runs] | viability, T/C (compound 0.316 µM) 87.2% and 90.1% and 102% (2×) | viability, T/C (compound 1 µM) 96.8% [middle of 4 runs] | viability, T/C (compound 3.16 µM) 83.8% [middle of 4 runs]
> 10 µM: IC50 (curve of compound)

CCCS(=O)(=O)Nc1ccc(F)c(C(=O)c2c[nH]c3ncc(-c4ccc(Cl)cc4)cc23)c1F + Cc1nc(NC(=O)N2CCCC2C(N)=O)sc1-c1ccnc(C(C)(C)C(F)(F)F)c1
3.55 µM: IC50 [5]
1.78 µM: IC50 (curve of first compound, second compound 3.16 µM)
3.97 µM: IC50 [4]
inactive: viability, T/C [19] 89.5% | viability, T/C [20] 95.7% | viability, T/C [21] 91.2% | viability, T/C [22] 104% | viability, T/C [23] 76.8% | viability, T/C [24] 12.9% | viability, T/C [25] 92.8% | viability, T/C [26] 97.5% | viability, T/C [27] 93.6% | viability, T/C [28] 97% | viability, T/C [29] 59.5% | viability, T/C [30] 11.6% | viability, T/C [31] 103% | viability, T/C [32] 86.5% | viability, T/C [33] 80.5% | viability, T/C [34] 105% | viability, T/C [35] 54.6% | viability, T/C [37] 113% | viability, T/C [38] 76.1% | viability, T/C [39] 63.9% | viability, T/C [40] 70.8% | viability, T/C [41] 49.3% | viability, T/C [42] 9.67% | viability, T/C (second compound 3.16 µM, first compound 0.0316 µM) 72.3% | viability, T/C (second compound 3.16 µM, first compound 0.1 µM) 61% | viability, T/C (second compound 3.16 µM, first compound 0.316 µM) 67.9% | viability, T/C (second compound 3.16 µM, first compound 1 µM) 62.9% | viability, T/C (second compound 3.16 µM, first compound 3.16 µM) 36.9% | viability, T/C (second compound 3.16 µM, first compound 10 µM) 10% | viability, T/C (second compound 10 µM, first compound 0.0316 µM) 43% | viability, T/C (second compound 10 µM, first compound 0.1 µM) 28.2% | viability, T/C (second compound 10 µM, first compound 0.316 µM) 36.4% | viability, T/C (second compound 10 µM, first compound 1 µM) 31.1% | viability, T/C (second compound 10 µM, first compound 3.16 µM) 26.2% | viability, T/C (second compound 10 µM, first compound 10 µM) 7.64%
5.12 µM: IC50 [3]
< 0.0316 µM: IC50 (curve of first compound, second compound 10 µM)
active: viability, T/C [36] 9.77%
1.44 µM: IC50 [6]

C#Cc1c(F)ccc2cc(O)cc(-c3ncc4c(N5CC6CCC(C5)N6)nc(OCC56CCCN5CC(F)C6)nc4c3F)c12 (stereo not drawn)
> 10 µM and 9.96 µM: IC50 (curve of compound)
inactive: viability, T/C (compound 0.0316 µM) 81.9% [middle of 4 runs] | viability, T/C (compound 0.1 µM) 92.6% [middle of 4 runs] | viability, T/C (compound 0.316 µM) 92.2% [middle of 4 runs] | viability, T/C (compound 1 µM) 100% [middle of 4 runs] | viability, T/C (compound 10 µM) 55.1% [middle of 4 runs]

C[C@@H](NC(=O)c1ncnc(N)c1Cl)c1ncc(C(=O)Nc2cc(C(F)(F)F)c(Cl)cn2)s1 + COc1c(OCCCN2CCOCC2)ccc2c3n(c(=NC(=O)c4cnc(N)nc4)nc12)CCN3
active: viability, T/C [37] 5.16% | viability, T/C [38] 4.86% | viability, T/C [39] 5.09% | viability, T/C [40] 7.06% | viability, T/C [41] 7.47% | viability, T/C [42] 5.33%
inactive: viability, T/C [7] 83.1% | viability, T/C [8] 91.9% | viability, T/C [9] 93.5% | viability, T/C [10] 96.2% | viability, T/C [11] 86.4% | viability, T/C [12] 76.4% | viability, T/C [13] 87% | viability, T/C [14] 101% | viability, T/C [15] 87.4% | viability, T/C [16] 101% | viability, T/C [17] 99.7% | viability, T/C [18] 71.4% | viability, T/C [19] 79.7% | viability, T/C [20] 79.2% | viability, T/C [21] 91.6% | viability, T/C [22] 75.9% | viability, T/C [23] 74.5% | viability, T/C [24] 61.6% | viability, T/C [25] 51.1% | viability, T/C [26] 52.5% | viability, T/C [27] 57.5% | viability, T/C [28] 66.6% | viability, T/C [29] 59.9% | viability, T/C [30] 56.6% | viability, T/C [31] 28.3% | viability, T/C [32] 27.8% | viability, T/C [33] 30% | viability, T/C [34] 37.3% | viability, T/C [35] 36.3% | viability, T/C [36] 31.9%
> 10 µM: IC50 [1] | IC50 [2] | IC50 [3] | IC50 [4]
< 0.0316 µM: IC50 [5] | IC50 [6]
